pEC50, pIC50: −log10 of the molar value.
Experiments:
[1] = target: T1, DDR1 (Homo sapiens, UniProt Q08345); assay: LanthaScreen Eu-Kinase Binding Assay (TR-FRET tracer displacement), DDR1; settings: catalytic domain GST Tag DDR1; Kinase Tracer 178
T1 construct: The enzymes were purchased as a catalytic domain GST Tag DDR1(#PR6913A); purchased ThermoFisher PR6913A
From the text: (§1) DDR1/2 binding assay: The binding assay relies on the LanthaScreen ™ Eu-Kinase Binding Assay (ThermoFisher Scientfic). This is a kinase assay platform based on measuring the binding and displacement of an Alexa Fluor® conjugate of an ATP-competitive kinase inhibitor or tracer at a kinase active site (Kinase Tracer 178. #PV5593). Binding of the tracer to the kinase is detected by addition of a europium (Eu)-labeled anti-GST antibody (#PV 5594) which specifically labels the kinase of interest. This binding results in a high degree of fluorescence resonance energy transfer (FRET), whereas displacement of the tracer with a kinase inhibitor results in a loss of FRET. The enzymes were purchased as a catalytic domain GST Tag DDR1(#PR6913A) and DDR2 (#PR7167A) from ThermoFisher. Assay conditions were as indicated by the kit manufacturers. Assays were performed in 384-well plates. The final read out was generated using an EnVision plate reader (Perkin-Elmer). The emission ratio was calculated by dividing the acceptor/tracer emission (665 nm) by the antibody/donor emission (615 nm). Values were plotted against the inhibitor concentration and fit to a sigmoid dose-response curve using Activity base by IDBS software.

[2] = target: T2, DDR2 (Homo sapiens, UniProt Q16832); assay: LanthaScreen Eu-Kinase Binding Assay (TR-FRET tracer displacement), DDR2; settings: catalytic domain GST Tag DDR2; Kinase Tracer 178
T2 construct: The enzymes were purchased as a catalytic domain GST Tag DDR1(#PR6913A) and DDR2 (#PR7167A); purchased ThermoFisher PR7167A
T2 sequence (Q16832 563-849 limits assumed): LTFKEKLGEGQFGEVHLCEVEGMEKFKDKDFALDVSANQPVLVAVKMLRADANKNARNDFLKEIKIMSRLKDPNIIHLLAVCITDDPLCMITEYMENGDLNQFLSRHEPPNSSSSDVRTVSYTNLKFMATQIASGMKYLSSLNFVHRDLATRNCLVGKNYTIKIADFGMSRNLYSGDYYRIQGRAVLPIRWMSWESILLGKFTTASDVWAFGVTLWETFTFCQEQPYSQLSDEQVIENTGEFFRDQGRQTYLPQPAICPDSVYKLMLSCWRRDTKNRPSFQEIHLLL
From the text: as §1

[3] = target: T3, DDR1 (Mus musculus, UniProt Q03146); assay: Cellular assay: inhibition of Collagen I-induced DDR1 autophosphorylation in HEK293T cells transiently transfected with DDR1 plasmid (Western blot); type: cell-based, human; settings: pcDNA3.1 DDR1 WT mouse plasmid, compound 1 h, then 10 µg/mL Collagen I 1 h, P-DDR1 (Y513), read-out: pDDR1 EC50
T3 construct: expressed in transfected cells; host or cells: HEK293T
T3 sequence (Q03146 20-911): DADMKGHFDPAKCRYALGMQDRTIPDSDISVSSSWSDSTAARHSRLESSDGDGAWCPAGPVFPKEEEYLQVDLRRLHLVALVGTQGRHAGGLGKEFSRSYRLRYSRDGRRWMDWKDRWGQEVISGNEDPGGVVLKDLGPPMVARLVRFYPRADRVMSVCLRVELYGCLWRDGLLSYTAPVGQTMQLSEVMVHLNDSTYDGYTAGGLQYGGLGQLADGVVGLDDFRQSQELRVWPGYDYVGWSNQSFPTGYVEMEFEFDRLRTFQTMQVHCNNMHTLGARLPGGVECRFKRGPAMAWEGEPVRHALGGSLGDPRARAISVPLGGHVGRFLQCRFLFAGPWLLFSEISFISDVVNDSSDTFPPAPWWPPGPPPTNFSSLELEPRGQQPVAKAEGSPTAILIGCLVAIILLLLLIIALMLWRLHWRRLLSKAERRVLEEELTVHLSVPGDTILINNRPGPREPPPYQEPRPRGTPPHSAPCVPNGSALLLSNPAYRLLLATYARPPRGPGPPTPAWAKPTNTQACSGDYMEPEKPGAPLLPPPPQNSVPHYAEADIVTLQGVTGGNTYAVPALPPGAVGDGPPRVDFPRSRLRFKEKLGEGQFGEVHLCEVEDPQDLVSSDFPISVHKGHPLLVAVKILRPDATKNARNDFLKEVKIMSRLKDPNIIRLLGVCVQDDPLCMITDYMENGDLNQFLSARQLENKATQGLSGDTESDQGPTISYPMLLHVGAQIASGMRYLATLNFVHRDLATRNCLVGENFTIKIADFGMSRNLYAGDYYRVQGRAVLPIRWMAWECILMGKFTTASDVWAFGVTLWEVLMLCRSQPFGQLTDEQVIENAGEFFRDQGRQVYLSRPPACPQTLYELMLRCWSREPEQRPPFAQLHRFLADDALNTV
Method: DDR1/2 cellular assay: Transient transfection of HEK293T cells with DDR1 plasmid is used to study the inhibition of the autophosphorylation of DDR1 induced by Collagen I in cells. HEK293T are seeded, 6x10^5 cells per well in 6-well plates and incubated for 6 h at 37 °C, 5% CO2. Then, cells are transfected using Effectene reactive (Quiagen) with pcDNA3.1 DDR1 WT mouse plasmid. Cells are incubated with transfection complexes under normal growth conditions for 24 h. After that, medium is replaced with fresh medium and cells are incubated for an additional 18 h. Eight serial 1:3 compound dilutions are made in DMSO. The compounds are added to each well of 6 well cell plates and are incubated at 37 °C under CO2 atmosphere 1 h. DDR1's autophosphorylation is stimulated by 1h treatment with 10 µg/mL Collagen I. Then, cells are washed in PBS, lyse adding 100 µl of complete RIPA protein lysis buffer (RIPA Buffer, 1 mM DTT, 5 mM Bezamidine, 10 µg/mL Aprotinin, 10 µg/mL Leupeptin, 710 ng/mL Pepstatin A, 100 µg/mL Trypsin Inhibitor, 40 µg/mL Bestatin, completed with PhosSTOP EASYpack and complete Mini, EDTA-free) and incubated 20 minutes at 4 °C and then centrifugated. Lysates are kept at -80 °C. The protein content of the lysates is determined by DC protein assay (Biorad, Ref. 5000116). The proteins are resolved by SDS-PAGE and transferred to nitrocellulose membrane (GE Healthcare #10600003). The membranes are incubated overnight at 4 °C with antibodies specific for DDR1 (D1G6) (Cell signaling #5583), P-DDR1 (Y513) (E1N8F) (Cell Signaling # 14531) they are washed and then incubated with Alexa Fluor 680 goat anti-rabbit IgG secondary antibodies (Invitrogen, A21076). The bands are visualized and quantified using an Odyssey infrared imaging system (Li-Cor Biosciences). The percentage of DDR1 phosphorylation is finally plotted against concentration for each compound and EC50s for intracellular DDR1 inhibition are calculated using ActivityBase from IDBS.

T1 sequence (Q08345 610-905 limits assumed): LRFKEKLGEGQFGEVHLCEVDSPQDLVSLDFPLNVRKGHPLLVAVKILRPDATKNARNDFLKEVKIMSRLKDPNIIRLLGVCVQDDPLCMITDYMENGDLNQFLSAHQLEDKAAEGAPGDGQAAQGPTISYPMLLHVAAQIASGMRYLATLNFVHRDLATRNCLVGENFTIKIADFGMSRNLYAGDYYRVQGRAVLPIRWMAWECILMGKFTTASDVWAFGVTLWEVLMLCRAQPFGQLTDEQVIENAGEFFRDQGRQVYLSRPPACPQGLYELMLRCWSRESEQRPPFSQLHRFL

Structure (SMILES) | pIC50 [1] | pIC50 [2] | pEC50 [3]
COc1ccccc1-c1c(-c2ccnc(Nc3cccc(S(N)(=O)=O)c3)n2)sc2nccc(=O)n12 [Compound 46, 3-{4-[3-(2-Methoxy-phenyl)-5-oxo-5H-thiazolo[3,2-a]pyrimidin-2-yl]-pyrimidin-2-ylamino}-benzenesulfonamide] | 8.28 | 7.70 | 7.51
COc1ccccc1-c1c(-c2ccnc(Nc3cccc(N4CCN(CCO)CC4)c3)n2)sc2nccc(=O)n12 [Compound 47, 2-(2-{3-[4-(2-Hydroxy-ethyl)-piperazin-1-yl]-phenylamino}-pyrimidin-4-yl)-3-(2-methoxy-phenyl)-thiazolo[3,2-a]pyrimidin-5-one] | 8.02 | 7.61 | 7.56
COc1ccccc1-c1c(-c2ccnc(Nc3ccc(N4CCN(C)CC4)cc3)n2)sc2nccc(=O)n12 [Compound 48, 3-(2-Methoxy-phenyl)-2-{2-[4-(4-methyl-piperazin-1-yl)-phenylamino]-pyrimidin-4-yl}-thiazolo[3,2-a]pyrimidin-5-one] | 7.71 | 7.15 | 7.56
COc1cccc(-c2c(-c3ccnc(Nc4cccc(S(N)(=O)=O)c4)n3)sc3nccc(=O)n23)c1 [Compound 49, 3-{4-[3-(3-Methoxy-phenyl)-5-oxo-5H-thiazolo[3,2-a]pyrimidin-2-yl]-pyrimidin-2-ylamino}-benzenesulfonamide] | 7.68 | 6.99 | 7.00
COc1cccc(-c2c(-c3ccnc(Nc4cccc(N5CCN(CCO)CC5)c4)n3)sc3nccc(=O)n23)c1 [Compound 50, 2-(2-{3-[4-(2-Hydroxy-ethyl)-piperazin-1-yl]-phenylamino}-pyrimidin-4-yl)-3-(3-methoxy-phenyl)-thiazolo[3,2-a]pyrimidin-5-one] | 7.68 | 7.10 | 7.48
COc1ccc(-c2c(-c3ccnc(Nc4cccc(S(N)(=O)=O)c4)n3)sc3nccc(=O)n23)cc1 [Compound 52, 3-{4-[3-(4-Methoxy-phenyl)-5-oxo-5H-thiazolo[3,2-a]pyrimidin-2-yl]-pyrimidin-2-ylamino}-benzenesulfonamide] | 7.96 | 7.39 | 6.95
CN1CCN(c2ccc(Nc3nccc(-c4sc5nccc(=O)n5c4-c4ccccc4O)n3)cc2)CC1 [Compound 55, 3-(2-Hydroxy-phenyl)-2-{2-[4-(4-methyl-piperazin-1-yl)-phenylamino]-pyrimidin-4-yl}-thiazolo[3,2-a]pyrimidin-5-one] | 8.64 | 8.20 | 7.66
CN1CCN(c2ccc(Nc3nccc(-c4sc5nccc(=O)n5c4-c4cccc(O)c4)n3)cc2)CC1 [Compound 56, 3-(3-Hydroxy-phenyl)-2-{2-[4-(4-methyl-piperazin-1-yl)-phenylamino]-pyrimidin-4-yl}-thiazolo[3,2-a]pyrimidin-5-one] | 8.25 | 7.76 | 7.91

The remaining lines, values ahead:

pIC50 [1] | pIC50 [2] | pEC50 [3] | Structure (SMILES)
8.08 | 7.56 | 7.72 | COc1cccc(-c2c(-c3ccnc(Nc4ccc(N5CCN(C)CC5)cc4)n3)sc3nccc(=O)n23)c1 [Compound 51, 3-(3-Methoxy-phenyl)-2-{2-[4-(4-methyl-piperazin-1-yl)-phenylamino]-pyrimidin-4-yl}-thiazolo[3,2-a]pyrimidin-5-one]
8.26 | 7.77 | 7.71 | COc1ccc(-c2c(-c3ccnc(Nc4cccc(N5CCN(CCO)CC5)c4)n3)sc3nccc(=O)n23)cc1 [Compound 53, 2-(2-{3-[4-(2-Hydroxy-ethyl)-piperazin-1-yl]-phenylamino}-pyrimidin-4-yl)-3-(4-methoxy-phenyl)-thiazolo[3,2-a]pyrimidin-5-one]
8.38 | 7.54 | 7.74 | COc1ccc(-c2c(-c3ccnc(Nc4ccc(N5CCN(C)CC5)cc4)n3)sc3nccc(=O)n23)cc1 [Compound 54, 3-(4-Methoxy-phenyl)-2-{2-[4-(4-methyl-piperazin-1-yl)-phenylamino]-pyrimidin-4-yl}-thiazolo[3,2-a]pyrimidin-5-one]

Reference: EP4032896A1, “THIAZOLOPYRIMIDONES AS INHIBITORS OF DDR1/2 AND THERAPEUTIC USES THEREOF” (Fundación del Sector Público Estatal Centro Nacional de …, priority 2021, dated 2022)
